Test [1] relates to LNCaP-hr cells. Nature of the test: Antitumor test using nude mice transplanted with LNCaP-hr cells. Type of test: in vivo. To be noted: castrated nude mice, LNCaP-hr subcutaneous, 15 mg/kg orally twice daily for three weeks; for T/C (tumor volume): control 100%, start of administration 0%. As to the method: LNCaP-hr cells were suspended in Matrigel, and 5×10^6 cells were transplanted subcutaneously into the flank of castrated nude mice. When tumor volume reached approximately 100 mm^3, the animals were grouped based on the tumor volume, and administered orally with 15 mg/kg body weight of the compound twice daily for three weeks. The tumor volume was calculated based on the assumption that the volume of the control group was 100% and the volume of the treated group at the start of the administration was 0% (T/C %).

Test [2] concerns androgen receptors. Description: Reporter assay using LNCaP-hr cells (6k-PSA promoter, firefly luciferase). Type of test: cell-based, human. To be noted: LNCaP-hr cells with PSA promoter-luciferase, 24 hours after addition.
Experimental: As a negative control compound, conventional AR antagonist, bicalutamide was used. 6k-PSA promoter and firefly luciferase gene were used as a PSA promoter and a reporter gene, respectively.
LNCaP-hr cells transfected with a reporter gene linked to a PSA promoter were plated on 96-well plates at a density of 50,000 cells/100 μL/well, to which the test compounds were added after the cells were cultured for 8 hours. The reporter activity was determined 24 hours after the addition of the test compounds. The suppressing activity of the test compounds on the reporter gene was calculated based on the assumption that the reporter activity in the cells without the addition of the test compounds (control group) was 100% and the reporter activity of the non-treated LNCaP-hr cells without introduction of the reporter gene was 0%.

SMILES strings stand for the structures.

Regarding `Cc1cc(-c2ccc(C#N)cc2)c(C)n1Cc1cc(C(F)(F)F)n[nH]1` [Compound 6], in test [1], the Antitumor activity entry is “antitumor activity was observed” and the “T/C (tumor volume)” value was “T/C = −3%”. Moreover, the “Suppressing activity on the reporter gene” value (from here on “Suppressing activity”) in test [2] is “Concentration-dependent suppressing activity on the reporter gene was observed”.

On to `Cc1cc(-c2ccc(C#N)cc2)c(C)n1Cc1cn[nH]c1C(C)(C)O` [Compound 9], for which, in test [1], the Antitumor activity entry was “antitumor activity was observed” and the “T/C (tumor volume)” value is listed as “T/C = 24%”. In addition, the “Suppressing activity” value in test [2] was “Concentration-dependent suppressing activity on the reporter gene was observed”.

Turning to `Cc1cc(-c2ccc(C#N)cc2)c(C#N)n1Cc1cc(C(F)(F)F)n[nH]1` [Compound 8], in test [1], the Antitumor activity entry is recorded as “antitumor activity was observed” and the “T/C (tumor volume)” value is “T/C = −5%”. For the same compound, the “Suppressing activity” value in test [2] was “Concentration-dependent suppressing activity on the reporter gene was observed”.
